Data from patent US12565489B2, “Heterocyclyl pyrimidines and triazines as novel fungicides” (Bayer Aktiengesellschaft, priority 2020, dated 2026).

What was measured:
[1] = test system: Colletotrichum lindemuthianum; assay: Colletotrichum lindemuthianum in vitro cell test; format: cell-based; settings: 144 h, 20 ppm of active ingredient, 6 days incubation, liquid culture, spectrometric measurement of mycelium growth, read-out: efficacy (inhibition of fungal growth)
Summary of the method: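 C. lindemuthianum spores were incubated with DMSO-solubilized compounds in liquid glucose-peptone-yeast extract medium, scoring inhibition of germination and mycelial growth. Mycelial growth was measured spectrometrically after 6 days. Inhibition was calculated from absorbance relative to compound-free control wells.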

Alternaria brassicae = assay: In vivo preventive test on Alternaria brassicae (leaf spot on radish or cabbage); settings: 144 h, 500 ppm of active ingredient, preventive spray on young radish or cabbage plants, evaluated 6 days after inoculation, read-out: efficacy
Description: (§1) The active ingredients were made soluble and homogenized in a mixture of Dimethyl sulfoxide/Acetone//Tween®80 and then diluted in water to the desired concentration. The young plants of radish or cabbage were treated by spraying the active ingredient prepared as described above. Control plants were treated only with an aqueous solution of Acetone/Dimethyl sulfoxide/Tween® 80. After 24 hours, the plants were contaminated by spraying the leaves with an aqueous suspension of Alternaria brassicae spores.

Alternaria alternata = Alternaria alternata in vitro cell test; format: cell-based; settings: 120 h, 20 ppm of active ingredient, 5 days incubation, liquid culture, spectrometric measurement of mycelium growth, read-out: efficacy (inhibition of fungal growth)
Summary of the method: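 Spore suspension of A. alternata in glucose/mycological peptone/yeast extract liquid medium, with compounds added from DMSO solutions at a range of concentrations. After 5 days, mycelium growth was measured spectrometrically. Inhibition was expressed relative to absorbance of fungicide-free control wells.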

Septoria tritici = Septoria tritici in vitro cell test; format: cell-based; settings: Zymoseptoria tritici, 168 h; 20 ppm of active ingredient; 7 days incubation; liquid culture, spectrometric measurement of mycelium growth; read-out: efficacy (inhibition of fungal growth)
Description: • Solvent: DMSO • Culture medium: 1 g KH2PO4 (VWR), 1 g K2HPO4 (VWR), 0.5 g Urea (VWR), 3 g KNO3 (Prolabo), 10 g saccharose (VWR), 0.5 g MgSO4, 7H2O (Sigma), 0.07 g CaCl2, 2H2O (Prolabo), 0.2 mg MnSO4, H2O (Sigma), 0.6 mg CuSO4, 5H2O (Sigma), 7.9 mg ZnSO4, 7H2O (Sigma), 0.1 mg H3BO3 (Merck), 0.14 mg NaMoO4, 2H2O (Sigma), 2 mg thiamine (Sigma), 0.1 mg biotine (VWR), 4 mg FeSO4, 7H2O (Sigma), QSP 1 liter • Inoculum: spore suspension Fungicides were solubilized in DMSO and the solution used to prepare the required range of concentrations. […] A spore suspension of S. tritici was prepared and diluted to the desired spore density. Fungicides were evaluated for their ability to inhibit spore germination and mycelium growth in liquid culture assay. The compounds were added in the desired concentration to the culture medium with spores. […] Inhibition of fungal growth was determined by comparing the absorbance values in wells containing the fungicides with the absorbance in control wells without fungicides.

Pyrenophora teres = Pyrenophora teres in vitro cell test; format: cell-based; settings: 144 h, 20 ppm of active ingredient, 6 days incubation, liquid culture, spectrometric measurement of mycelium growth, read-out: efficacy (inhibition of fungal growth)
Summary of the method: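 Spore suspension grown in liquid glucose–peptone–yeast extract medium with compound added from DMSO solution. Mycelium growth read by absorbance after 6 days. Inhibition is relative to compound-free control wells.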

Sphaerotheca fuliginea = assay: In vivo preventive test on Sphaerotheca fuliginea (powdery mildew on cucurbits); settings: Podosphaera fuliginea, 192 h; 500 ppm of active ingredient; preventive spray on young gherkin plants; evaluated 8 days after inoculation; read-out: efficacy
Description: as §1, with “gherkin” for “radish or cabbage”, “Sphaerotheca fuliginea” for “Alternaria brassicae”

Pyricularia oryzae = assay: microbe, parasite or virus in culture; format: cell-based; settings: 120 h, read-out: efficacy (inhibition of fungal growth)
Botrytis cinerea = Botrytis cinerea in vitro cell test; format: cell-based; settings: 144 h, 20 ppm of active ingredient, 6 days incubation, liquid culture, spectrometric measurement of mycelium growth, read-out: efficacy (inhibition of fungal growth)
Summary of the method: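 B. cinerea spore suspension grown in defined liquid mineral/sucrose medium with DMSO-dissolved compounds for 6 days. Mycelial growth was measured by absorbance, and inhibition was derived relative to fungicide-free control wells.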

SMILES	inhibition at 20 ppm [1]	pest or weed control at 500 ppm (Alternaria brassicae)	inhibition at 20 ppm (Alternaria alternata)	inhibition at 20 ppm (Septoria tritici)	inhibition at 20 ppm (Pyrenophora teres)	pest or weed control at 500 ppm (Sphaerotheca fuliginea)	inhibition at 20 ppm (Pyricularia oryzae)	inhibition at 20 ppm (Botrytis cinerea)
Cc1ccc(C[C@@H]2CON=C(c3nc(C)ncc3Oc3cccc(C4CC4)c3F)N2)c(Cl)c1 (racemic) [Compound I-008]	90 to 100%	90 to 100%	90 to 100%	90 to 100%	90 to 100%	90 to 100%	90 to 100%	90 to 100%
Cc1ccc(C[C@@H]2CON=C(c3nc(C)ncc3Oc3cccc(C4CC4)c3F)N2)c(C)c1 (racemic) [Compound I-016]	90 to 100%	90 to 100%	90 to 100%	90 to 100%	90 to 100%	90 to 100%	90 to 100%	90 to 100%
Cc1ccc(C[C@@H]2CON=C(c3nc(C)ncc3Oc3cccc(Cl)c3F)N2)c(Cl)c1 (racemic) [Compound I-005]	90 to 100%	90 to 100%	90 to 100%	90 to 100%	90 to 100%	90 to 100%	80 to 89%	90 to 100%
COc1cccc(Oc2cnc(C)nc2C2=NOC[C@@H](Cc3ccc(C)cc3C)N2)c1 (racemic) [Compound I-032]	90 to 100%	90 to 100%	90 to 100%	90 to 100%	90 to 100%	90 to 100%	80 to 89%	90 to 100%
C#Cc1ccc(CC2CON=C(c3nc(C)ncc3Oc3cccc(C(F)(F)F)c3)N2)c(C)c1 (racemic) [Compound I-026, (5RS)-5-[(4-ethynyl-2-methyl-phenyl)methyl]-3-[2-methyl-5-[3-(trifluoromethyl)phenoxy]pyrimidin-4-yl]-5,6-dihydro-4H-1,2,4-oxadiazine]	90 to 100%	90 to 100%	90 to 100%	90 to 100%	90 to 100%	90 to 100%	90 to 100%	90 to 100%
Cc1ccc(CC2CON=C(c3nc(C4CC4)ncc3Oc3cccc(C(F)(F)F)c3)N2)c(C)c1 (racemic) [Compound I-001, (5RS)-3-{2-cyclopropyl-5-[3-(trifluoro-methyl)phenoxy]pyrimidin-4-yl}-5-(2,4-dimethylbenzyl)-5,6-dihydro-4H-1,2,4-oxadiazine]	90 to 100%	90 to 100%	90 to 100%	90 to 100%	90 to 100%	90 to 100%	80 to 89%	90 to 100%
Cc1ccc(C[C@@H]2CON=C(c3nc(C)ncc3Oc3cccc(Br)c3)N2)c(C)c1 (racemic) [Compound I-009]	90 to 100%	90 to 100%	90 to 100%	90 to 100%	90 to 100%	90 to 100%	90 to 100%	90 to 100%
Cc1ccc(C[C@@H]2CON=C(c3nc(C)ncc3Oc3cccc(C4CC4)c3)N2)c(C)c1 (racemic) [Compound I-024]	90 to 100%	90 to 100%	90 to 100%	90 to 100%	90 to 100%	90 to 100%	90 to 100%	90 to 100%
